PMC6433934, “Preclinical Evaluation of Bispecific Adaptor Molecule Controlled Folate Receptor CAR-T Cell Therapy With Special Focus on Pediatric Malignancies” (Frontiers in Oncology, 2019)

Assays:
[1] = tested on: OV90; assay: EC17 dose response, co-culture with E2-CAR-T cells, LDH specific lysis; type: cell-based; conditions: OV90, E/T 1:1, 24 h co-culture
Description: To investigate EC17 CAM action in vitro, pure EGFRt-sorted CD4 and CD8 CAR-T cells were admixed in a 1:1 ratio and matching mock-transduced T cells were included per experimental design. Other than FR+/- isogenic pairs of AML and osteosarcoma cell lines, we added KB, MDA-MB-231 and OV90 to represent different histological tumor types and FR expression levels. All FR+ target cell lines were subjected to a direct ^3H-FA binding assay to quantitate the number of FR molecules bound/cell ([38]). Prior to co-culture experiments, cryopreserved CAR-T cells were allowed to recover for 2–3 days in T cell culture medium. All effector and target cells were pre-washed with FFRPMI to remove any exogenous FA that could compete against EC17. […]
For an EC17 dose response study, FR+ cancer cell lines (KB, MDA-MB-231, HOS-FRα, THP1-FRβ, OV90) were co-cultured with EGFRt-sorted E2-CAR-T cells at an effector-to-target (E/T) ratio of 1:1 in the presence of EC17 ranging from 0.1 pM to 100 μM in 10-fold increments. After 24 h of co-culture, supernatants were harvested to determine target cell killing by Promega's CytoTox 96® LDH assay kit and expressed as specific lysis (%) normalized to basal levels in the absence of EC17. […] The kinetics of target cell killing (i.e., % specific lysis) were quantified after 16 and 48 h of co-culture and normalized to basal levels in the absence of EC17 at defined E/T ratios. […]

[2] = tested on: KB; assay: as above; type: cell-based, human; conditions: E/T 1:1, 24 h co-culture
Description: (§1) To investigate EC17 CAM action in vitro, pure EGFRt-sorted CD4 and CD8 CAR-T cells were admixed in a 1:1 ratio and matching mock-transduced T cells were included per experimental design. Other than FR+/- isogenic pairs of AML and osteosarcoma cell lines, we added KB, MDA-MB-231 and OV90 to represent different histological tumor types and FR expression levels. All FR+ target cell lines were subjected to a direct ^3H-FA binding assay to quantitate the number of FR molecules bound/cell ([38]). Prior to co-culture experiments, cryopreserved CAR-T cells were allowed to recover for 2–3 days in T cell culture medium. All effector and target cells were pre-washed with FFRPMI to remove any exogenous FA that could compete against EC17. Short-term co-culture studies of ≤ 3 days were carried out in FFRPMI without adding any exogenous cytokines.
(§2) For an EC17 dose response study, FR+ cancer cell lines (KB, MDA-MB-231, HOS-FRα, THP1-FRβ, OV90) were co-cultured with EGFRt-sorted E2-CAR-T cells at an effector-to-target (E/T) ratio of 1:1 in the presence of EC17 ranging from 0.1 pM to 100 μM in 10-fold increments. After 24 h of co-culture, supernatants were harvested to determine target cell killing by Promega's CytoTox 96® LDH assay kit and expressed as specific lysis (%) normalized to basal levels in the absence of EC17. To study the kinetics of T cell activation and FR correlation in vitro, co-cultures were carried out in FR+/- cell lines at varying E/T ratios (1:27, 1:9, 1:3, 1:1, 3:1) in the continuous presence of 10 nM EC17. The kinetics of target cell killing (i.e., % specific lysis) were quantified after 16 and 48 h of co-culture and normalized to basal levels in the absence of EC17 at defined E/T ratios. Meanwhile, a portion of the supernatants was taken after 44 h of co-culture for measurement of IFNγ, IL-2, and TNFα. The LEGENDplex™ human Th1 cytokine panel (BioLegend, San Diego, CA) was used to determine CAR-T cell derived cytokines.

[3] = tested on: HOS-FRα; assay: as above; type: cell-based, human
Description: as §1, §2

[4] = tested on: THP1-FRβ; assay: as above; type: cell-based, human
Description: as §1, §2

[5] = tested on: MDA-MB-231; assay: as above; type: cell-based, human; conditions: MDA-MB-231, E/T 1:1, 24 h co-culture
Description: as §1, §2

[6] = tested on: HOS-FRα tumors; assay: Osteosarcoma study, subcutaneous xenografts, EC17 dose escalation; type: in vivo
Procedure: All animal care and use were performed according to NIH guidelines and in compliance with protocols approved by the Purdue University Animal Use and Care Committee. Female 4 to 5-weeks-old NOD/SCID gamma (NSG™) mice (stock number: 005557) were purchased from The Jackson Laboratory (Bar Harbor, ME). Unless specifically indicated, all animals were maintained on a FA-deficient diet (TestDiet, St. Louis, MO) upon arrival and throughout the study. To establish subcutaneous xenografts, MDA-MB-231 and HOS-FRα were implanted in the right flank region at 2.5 × 10^6 and 1 × 10^6 cells per animal, respectively. For intravenous xenografts, THP1-FRβ cells were inoculated at 5 × 10^6 cells per animal. Subcutaneous tumors were measured 2–3 times per week with a caliper and calculated using the ellipsoidal formula (length x width^2)/2. […] All animal doses (CAR-T cells, EC17, sodium fluorescein) were given intravenously.
For osteosarcoma study, two cohorts of mice were subcutaneously implanted with HOS-FRα tumor cells 3 days prior to receiving ~6 million of the same CAR-T cell preparation used in the THP1-FRβ study. At ~3.5 days post CAR-T cell infusion, one cohort of mice was given up to 3 cycles of EC17 at 5/10/100 nmol/kg in Cycle 1, 5/30/300 nmol/kg in Cycle 2, and 5/50/500 nmol/kg in Cycle 3, all following the Monday/Thursday/Monday regimen with a 6 day break in-between cycles. At the end of study, circulating CD3ε+ EGFRt+ CAR-T cells per 100 μL of mouse blood were enumerated. HOS-FRα tumors (+/- EC17 treatment) were also harvested and digested for flow cytometric analysis of tumor-infiltrating CAR-T cells.
Depending on the CAR-T cell dose and how EC17 is administered, tumor-bearing mice receiving FITC-specific CAR-T cells can experience severe CRS and varying degrees of body weight loss ([27], [33], [34]). Therefore, we developed a CRS grading system (0–5 scale) to empirically assess CRS toxicity from animals' gross morphology and social behavior to allow for better timing of CRS rescue. While grades 0 and 5 indicated normal (no CRS) or death (due to severe CRS), respectively, grades 1, 2, and 3–4 were considered mild, light-to-moderate, and severe CRS. In addition, all EC17 doses were intentionally given toward the end of any given day to allow potential CRS symptoms to develop overnight. On the days immediately following each EC17 dose, animals were scored and rescue agents such as sodium fluorescein, folic acid and leucovorin were used to mitigate CRS toxicity ([33]). In this particular instance, a batch of E2-CAR-T cells with a high EGFRt+ CD4/CD8 ratio (~93:7) was given to HOS-FRα tumor-bearing mice at a mixture of ~2.5 million CD8 and ~33 million CD4 on day 0. […]

[7] = Homo sapiens, curve fitted up to 100 nM
[8] = Homo sapiens, EC17, E/T 1:1, 24 h co-culture, curve fitted up to 100 nM

With Nc1nc2ncc(CNc3ccc(C(=O)NC(CCC(=O)NCCNC(=S)Nc4ccc(-c5c6ccc(=O)cc-6oc6cc(O)ccc56)c(C(=O)O)c4)C(=O)O)cc3)nc2c(=O)[nH]1 (centres unmarked) [EC17, FA-(γ)-ethylenediamine-FITC] the EC50 ([1]; Homo sapiens, OV-90, curve fitted up to 100 nM) was 418 pM, the Max. lysis [1] was 15% and the Max. lysis [2] was 11%. The EC50 [2, 7] was 5.3 pM, the Max. lysis ([3]; E/T 1:1, 24 h co-culture) was 18% and the EC50 [3, 8] was 30 pM. The Max. lysis ([4]; E/T 1:1, 24 h co-culture) was 27%, the EC50 [4, 8] was 15 pM and the EC50 [5, 7] was 4.5 pM. The Max. lysis [5] was 45%, the “safety (CRS, body weight)” value ([6]; EC17 M/Th/M escalation 5/10/100, 5/30/300, 5/50/500 nmol/kg, ~6 million E2-CAR-T cells) was “no CRS or body weight loss” and the tumor growth ([6]; EC17 M/Th/M escalation, within the first two cycles, ~6 million E2-CAR-T cells) was “significant delay in tumor growth”. The cures ([6]; HOS-FRα xenografts, EC17 plus E2-CAR-T cells) was “no cures” and the “intratumoral CD3ε+ EGFRt+ CAR-T cell population” value ([6]; day 33, EC17-treated animals) was ~ 1 % total viable digested tumor-derived cells.
